Two compounds from US12037305B2, “Calcium salt polymorphs as anti-inflammatory, immunomodulatory and anti-proliferative agents” (Immunic AG, priority 2018, dated 2024) can be followed below.

One series has as its system Human T-Cells. The series is described as follows: Proliferation assay of human T-cells (PHA-stimulated PBMC, BrdU ELISA). As to conditions: T-cell, PHA 20 μg/ml, 48 hours. The series is classed as cell-based. As for the experimental part:
Human peripheral blood mononuclear cells (PBMC) were obtained from healthy volunteers and transferred to RPMI1640 cell culture medium containing 10% dialyzed fetal calf serum. 80.000 cells per well were pipetted into a 96-well plate and phytohemagglutinin (PHA) was added in phosphate buffered saline to a final concentration of 20 μg/ml to stimulate T-cell proliferation. Vidofludimus was added in dimethyl sulfoxide (DMSO, final concentration: 0.1 Vol %) to final concentrations ranging from 20 nM to 50 μM. After incubation for 48 hours, cell proliferation was quantified using the “cell proliferation ELISA BrdU” (Roche) according to the manufacturer's instructions. Half maximal inhibition (IC50) was calculated using a 4-parameter sigmoidal curve fit.

A short description of series [1]: Dynamic vapor sorption (DVS). The series is classed as physicochemical. The source says: DVS (SMS): Surface Measurement Systems Ltd. DVS-1 water vapour sorption analyzer. The sample is placed on a platinum sample pan and allowed to equilibrate at a given relative humidity (r.h.), usually 50% r.h. Then, a pre-defined humidity program was started with a scanning rate of 5% r.h. change per hour. First step: from 50% r.h. to 0% r.h. (in case of a possibly hydrate as starting material 50 to 95% r.h.), second step: from 0% to 95% r.h. (in case of a possibly hydrate as starting material 95 to 0% r.h.)

Structures can show the parent of a compound that is named as a salt.

The term IC50 denotes the concentration that inhibits the measured activity by half. A low value points to greater potency in that assay. As to `COc1cccc(-c2ccc(NC(=O)C3=C(C(=O)O)CCC3)c(F)c2)c1` [Vidofludimus, 2-(3-Fluoro-3′-methoxy-biphenyl-4-ylcarbamoyl)-cyclopent-1-enecarboxylic acid], it took 4.1 µM to reach half-maximal inhibition with Human T-Cells (IC50). As for `COc1cccc(-c2ccc(NC(=O)C3=C(C(=O)O)CCC3)c(F)c2)c1` [Calcium salt], the water uptake in series [1] (at 95% r.h. (not reversible)) was 0.4%; in series [1] (at about 85% r.h., after desolvation) it was 0.3%.
